Measurements as given in US12528814B2, “Bifunctional degraders of interleukin-1 receptor-associated kinases and therapeutic use thereof” (NURIX THERAPEUTICS, INC., priority 2020, dated 2026).
“Also recorded” adds a separate entry of the source. Where two headings read alike, the source gives them in different places.

Experiments:
IRAK4 [1] = target: T1, IRAK4 (Homo sapiens (Human), UniProt Q9NWZ3); test: IRAK4 Biochemical HTRF Kinase Assay
Method in brief: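 IC50 values derive from non-linear regression of sixteen concentrations in duplicate. Kinase reaction ran 90 min at ambient temperature after adding 5 μM STK-S1 substrate, 10 mM ATP and 10 mM MgCl2 (reaction-solution levels, pre-dilution to 10 μl); phospho-peptide detected by HTRF after 60 min.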
Target sequence in this assay (Q9NWZ3 whole entry, species assumed): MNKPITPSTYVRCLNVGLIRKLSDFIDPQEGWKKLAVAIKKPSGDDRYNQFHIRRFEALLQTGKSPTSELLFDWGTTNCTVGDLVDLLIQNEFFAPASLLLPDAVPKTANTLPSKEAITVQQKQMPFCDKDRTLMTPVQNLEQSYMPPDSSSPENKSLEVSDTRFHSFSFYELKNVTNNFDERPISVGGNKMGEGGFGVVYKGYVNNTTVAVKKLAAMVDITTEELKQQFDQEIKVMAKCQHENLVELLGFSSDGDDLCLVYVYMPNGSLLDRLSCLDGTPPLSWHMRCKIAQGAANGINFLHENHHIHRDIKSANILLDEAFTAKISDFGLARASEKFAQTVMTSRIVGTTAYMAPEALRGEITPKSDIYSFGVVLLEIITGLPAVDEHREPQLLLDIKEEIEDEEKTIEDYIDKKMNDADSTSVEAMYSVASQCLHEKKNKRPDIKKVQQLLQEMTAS

IRAK4 [2] = target: T1, IRAK4; test: IRAK4 Degradation HTRF Assay; type: cell-based; conditions: wild-type Jurkat cells, 4 hrs
Protocol: DMSO was stamped into wells A12-H12 at 400 nL/well (NC, Negative Control, maximum signal). […] Following incubation, plates were centrifuged for 5 min at 1600 rpm. […] Cells were incubated 30 min at room temperature with gentle shaking. 16 μL each lysate was transferred to 96-well detection plate included in Cisbio Total IRAK4 HTRF Assay Kit (cat. no. 63ADK108PEG). To the lysates was added 2 μL each of Total-IRAK4 d2 antibody and Total-IRAK4 Cryptate antibody (Cisbio Total IRAK4 HTRF Assay Kit). Plates were incubated overnight at RT. Fluorescence emission at 665 nm and 620 nm was read using an EnVision plate reader. The HTRF Ratio was calculated per sample using the following equation: HTRF Ratio=(665 nm signal/620 nm signal)×10,000
Target sequence in this assay (Q9NWZ3 whole entry): as the sequence (Q9NWZ3 whole entry, species assumed) above

Ikaros = Ikaros (Homo sapiens (Human), UniProt Q13422+Q96SW2); test: Flow Cytometry-Based Assay for Ikaros Degradation; type: cell-based; conditions: 24 hours; for DC50: Jurkat cells (Clone E6-1); for Ikaros (CRBN neosubstrate) degradation, in words: Jurkat cells
Protocol: Flow Cytometry-Based Assay for Aiolos and Ikaros Degradation
Jurkat cells (Clone E6-1) were treated with DMSO or compound for 24 hours and then fixed and permeabilized using a Foxp3/Transcription Factor Fixation/Permeabilization Kit (eBioscience, cat. no. 00-5523). Cells were stained with fluorophore-conjugated antibodies against Ikaros (Biolegend 368414) and Aiolos (Biolegend, cat. no. 371106). An additional set of DMSO-treated cells was stained with fluorophore-conjugated isotype control antibodies (Biolegend, cat. no. 400254 and 400136). Stained cells were run on an Attune N×T Acoustic Focusing Flow Cytometer (Thermo-Fisher, cat. no. A29004), and data was analyzed using FlowJo (v10.5.3) and GraphPad Prism (v7.00) software. Single cells were gated, and the geometric mean fluorescence intensities (MFIs) of Ikaros and Aiolos were calculated. The MFI of the isotype control was calculated for each analyte and used to quantify background staining. Percent Ikaros or Aiolos degradation was calculated for each compound-treated sample using the following equation: % Degradation=[…]

Jurkat cells = test: Viability Assay (Celltiter-Glo); type: cell-based; conditions: Homo sapiens, 4 hrs, read-out: Viability assessment EC50
Protocol: Viability Assay (Celltiter-Glo)
DMSO was stamped into empty wells at 60 nL/well (NC, Negative Control, maximum signal). […] Following incubation, the CellTiter-Glo assay was performed according to manufacturer's instructions (Promega CellTiter-Glo Luminescent Cell Viability Assay, cat. no. G7570).

[3] = Table 3, VHL-targeting compounds, read-out: IRAK4 biochemical IC50
[4] = Table 4, read-out: IRAK4 HTRF biochemical: IC50
[5] = Table 5, multiple runs, read-out: IRAK4 HTRF biochemical: IC50
[6] = Table 2, CRBN-targeting compounds, read-out: IRAK4 biochemical IC50

Sequence of Ikaros (Q13422 whole entry): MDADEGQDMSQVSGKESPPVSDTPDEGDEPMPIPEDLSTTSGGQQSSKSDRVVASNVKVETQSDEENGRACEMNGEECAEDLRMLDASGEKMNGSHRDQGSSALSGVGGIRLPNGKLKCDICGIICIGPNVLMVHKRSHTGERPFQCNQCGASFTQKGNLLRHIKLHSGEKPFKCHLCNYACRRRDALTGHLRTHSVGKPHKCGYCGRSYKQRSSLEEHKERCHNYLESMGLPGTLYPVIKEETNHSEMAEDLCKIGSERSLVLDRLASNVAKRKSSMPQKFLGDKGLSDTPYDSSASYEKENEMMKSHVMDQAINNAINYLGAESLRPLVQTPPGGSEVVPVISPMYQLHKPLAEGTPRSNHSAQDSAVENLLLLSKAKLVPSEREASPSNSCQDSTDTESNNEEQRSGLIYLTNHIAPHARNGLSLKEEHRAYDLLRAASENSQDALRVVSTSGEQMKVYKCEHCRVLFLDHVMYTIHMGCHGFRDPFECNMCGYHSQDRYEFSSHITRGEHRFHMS
Sequence of Ikaros (Q96SW2 whole entry): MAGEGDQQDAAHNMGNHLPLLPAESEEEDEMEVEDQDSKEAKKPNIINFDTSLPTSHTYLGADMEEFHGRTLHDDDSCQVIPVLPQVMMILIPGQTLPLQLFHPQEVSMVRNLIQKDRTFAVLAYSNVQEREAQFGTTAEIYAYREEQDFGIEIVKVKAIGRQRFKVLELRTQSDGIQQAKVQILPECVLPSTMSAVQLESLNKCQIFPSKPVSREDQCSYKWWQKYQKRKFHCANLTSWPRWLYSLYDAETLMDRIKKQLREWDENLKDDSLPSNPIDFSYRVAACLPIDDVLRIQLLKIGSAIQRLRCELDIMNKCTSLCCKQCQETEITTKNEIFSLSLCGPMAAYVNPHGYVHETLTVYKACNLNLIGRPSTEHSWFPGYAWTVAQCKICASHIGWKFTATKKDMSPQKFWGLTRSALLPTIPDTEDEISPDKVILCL
Sequence of Ikaros (Q16531 whole entry partner): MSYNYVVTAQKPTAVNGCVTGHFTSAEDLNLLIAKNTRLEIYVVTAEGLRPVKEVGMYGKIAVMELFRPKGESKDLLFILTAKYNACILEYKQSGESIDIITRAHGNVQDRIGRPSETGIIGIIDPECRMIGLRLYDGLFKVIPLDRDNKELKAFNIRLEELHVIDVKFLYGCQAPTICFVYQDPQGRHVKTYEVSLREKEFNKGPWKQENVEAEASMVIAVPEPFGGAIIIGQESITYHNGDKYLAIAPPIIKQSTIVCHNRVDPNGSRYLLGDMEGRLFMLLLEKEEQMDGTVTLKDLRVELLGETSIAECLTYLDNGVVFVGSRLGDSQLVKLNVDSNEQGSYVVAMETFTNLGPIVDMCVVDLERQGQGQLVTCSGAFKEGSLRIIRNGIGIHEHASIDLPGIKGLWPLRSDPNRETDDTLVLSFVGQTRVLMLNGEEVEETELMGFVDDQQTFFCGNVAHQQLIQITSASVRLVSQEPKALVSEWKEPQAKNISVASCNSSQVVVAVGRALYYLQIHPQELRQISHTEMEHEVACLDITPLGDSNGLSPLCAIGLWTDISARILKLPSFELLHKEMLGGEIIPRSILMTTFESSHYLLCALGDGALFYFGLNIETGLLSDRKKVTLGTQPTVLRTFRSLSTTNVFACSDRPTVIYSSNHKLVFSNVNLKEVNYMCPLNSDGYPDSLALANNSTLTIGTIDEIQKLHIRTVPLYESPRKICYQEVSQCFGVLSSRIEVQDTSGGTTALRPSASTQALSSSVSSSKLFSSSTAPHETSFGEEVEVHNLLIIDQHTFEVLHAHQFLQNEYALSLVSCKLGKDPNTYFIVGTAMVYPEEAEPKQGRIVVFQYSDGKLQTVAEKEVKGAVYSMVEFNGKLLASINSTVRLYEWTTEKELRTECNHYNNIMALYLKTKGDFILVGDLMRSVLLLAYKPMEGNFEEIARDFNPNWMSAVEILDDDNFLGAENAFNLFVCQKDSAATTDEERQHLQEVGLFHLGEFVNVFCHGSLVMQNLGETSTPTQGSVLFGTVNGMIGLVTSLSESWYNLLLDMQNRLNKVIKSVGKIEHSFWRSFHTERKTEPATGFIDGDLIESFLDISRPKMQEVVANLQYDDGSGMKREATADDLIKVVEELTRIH

| Compound | IC50 (IRAK4 [1]; [3]) [nM] | DC50 (IRAK4 [2]) [nM] | Dmax (IRAK4 [2]) [%] | DC50 (Ikaros) [nM] | EC50 (Jurkat cells) [nM] | IC50 (IRAK4 [1]; [4]) [nM] | IC50 (IRAK4 [1]; [5]) [nM] | IC50 (IRAK4 [1]; [6]) [nM] | Ikaros (CRBN neosubstrate) degradation, in words (Ikaros) | IRAK4 degradation by HTRF, in words (IRAK4 [2]) |
| --- | --- | --- | --- | --- | --- | --- | --- | --- | --- | --- |
| CC[C@@H]1[C@H](F)C(=O)N[C@@H]1COc1ncc(C#CCN2CCC3(CC2)CCN(c2ncc(C(=O)N[C@H](C(=O)N4C[C@H](O)C[C@H]4C(=O)NCc4ccc(-c5scnc5C)cc4)C(C)(C)C)cn2)CC3)c2cc(C(N)=O)c(OC)cc12 [Comparative b1, reference compound] | 2.3 | 80 | 100 | > 5000 | > 10000 | – | – | – | – | – |
| CC(C)Nc1cc(-c2ccc3cc(C#N)cnn23)ncc1-c1nnc(N2CCN(C(=O)C3CCN(CC4CCN(c5ccc(-c6nn(C7CCC(=O)NC7=O)c(=O)n6C)cc5)CC4)CC3)CC2)s1 (centres unmarked) [Example 24, 7-(5-(5-(4-(1-((1-(4-(1-(2,6-dioxopiperidin-3-yl)-4-methyl-5-oxo-4,5-dihydro-1H-1,2,4-triazol-3-yl)phenyl)piperidin-4-yl)methyl)piperidine-4-carbonyl)piperazin-1-yl)-1,3,4-thiadiazol-2-yl)-4-(isopropylamino)pyridin-2-yl)pyrrolo[1,2-b]pyridazine-3-carbonitrile] | – | 420 | > 100 | > 5000 | > 10000 | 0.6 | 0.6 | 0.6 | none of Compounds 13, 24, 47, and 35 displayed neosubstrate degradation | – |
| NC(=O)c1nn(-c2ccc(C(=O)NCCOCCOCCNc3cccc4c3C(=O)N(C3CCC(=O)NC3=O)C4=O)cc2)cc1NC(=O)c1coc(-c2ccnc(NCC(F)(F)F)c2)n1 (centres unmarked) [Comparative Compound a2, reference compound] | – | 60 | 100 | 20 | > 10000 | – | – | 1.2 | induced neosubstrate degradation; also recorded: degraded both Ikaros and Aiolos | – |

Now from value to molecule, other results behind:

| IC50 (IRAK4 [1]; [3]) [nM] | DC50 (IRAK4 [2]) [nM] | Dmax (IRAK4 [2]) [%] | DC50 (Ikaros) [nM] | EC50 (Jurkat cells) [nM] | IC50 (IRAK4 [1]; [4]) [nM] | IC50 (IRAK4 [1]; [5]) [nM] | IC50 (IRAK4 [1]; [6]) [nM] | Compound | Ikaros (CRBN neosubstrate) degradation, in words (Ikaros) | IRAK4 degradation by HTRF, in words (IRAK4 [2]) |
| --- | --- | --- | --- | --- | --- | --- | --- | --- | --- | --- |
| 5.2 | 400 | 100 | > 5000 | > 10000 | 5.2 | 5.2 | – | Cc1ncsc1-c1ccc(CNC(=O)[C@@H]2C[C@@H](O)CN2C(=O)[C@@H](NC(=O)CCCC(=O)N2CCN(c3nnc(-c4cnc(-c5ccc6cc(C#N)cnn56)cc4NC(C)C)s3)CC2)C(C)(C)C)cc1 [Example 35, (2S,4R)-1-((S)-2-(5-(4-(5-(6-(3-cyanopyrrolo[1,2-b]pyridazin-7-yl)-4-(isopropylamino)pyridin-3-yl)-1,3,4-thiadiazol-2-yl)piperazin-1-yl)-5-oxopentanamido)-3,3-dimethylbutanoyl)-4-hydroxy-N-(4-(4-methylthiazol-5-yl)benzyl)pyrrolidine-2-carboxamide] | none of Compounds 13, 24, 47, and 35 displayed neosubstrate degradation | – |
| – | 50 | > 100 | > 5000 | > 10000 | 0.5 | 0.8 | 0.5 | CC(C)Nc1cc(-c2ccc3cc(C#N)cnn23)ncc1-c1nnc(N2CCN(C(=O)C3CCN(Cc4ccc5c(c4)C(=O)N(C4CCC(=O)NC4=O)C5=O)CC3)CC2)s1 (centres unmarked) [Example 13, 7-(5-(5-(4-(1-((2-(2,6-dioxopiperidin-3-yl)-1,3-dioxoisoindolin-5-yl)methyl)piperidine-4-carbonyl)piperazin-1-yl)-1,3,4-thiadiazol-2-yl)-4-(isopropylamino)pyridin-2-yl)pyrrolo[1,2-b]pyridazine-3-carbonitrile] | none of Compounds 13, 24, 47, and 35 displayed neosubstrate degradation | – |
| 7.3 | 140 | > 100 | > 5000 | > 10000 | 7.3 | 5.8 | – | Cc1ncsc1-c1ccc(CNC(=O)[C@@H]2C[C@@H](O)CN2C(=O)[C@@H](NC(=O)C2(F)CC2)C(C)(C)C)c(OCCOCCC(=O)N2CCN(c3nnc(-c4cnc(-c5ccc6cc(C#N)cnn56)cc4NC(C)C)s3)CC2)c1 [Example 47, (2S,4R)—N-(2-(2-(3-(4-(5-(6-(3-cyanopyrrolo[1,2-b]pyridazin-7-yl)-4-(isopropylamino)pyridin-3-yl)-1,3,4-thiadiazol-2-yl)piperazin-1-yl)-3-oxopropoxy)ethoxy)-4-(4-methylthiazol-5-yl)benzyl)-1-((S)-2-(1-fluorocyclopropane-1-carboxamido)-3,3-dimethylbutanoyl)-4-hydroxypyrrolidine-2-carboxamide] | none of Compounds 13, 24, 47, and 35 displayed neosubstrate degradation | maximum IRAK4 degradation among the tested compounds |
